The record followed here is PubChem BioAssay AID180 (DTP/NCI, 2004).

Usually T/C stands for the result in the treated group divided by that in the control group, in per cent.

The test deals with BDF1 mice, Adenocarcinoma 755 s.c., tumor weight T/C. As to the kind of experiment: NCI In Vivo Anticancer Drug Screen. Data for tumor model Adenocarcinoma 755 (subcutaneous) in B6D2F1 (BDF1) mice. To be noted: endpoint: mean tumor weight, higher = larger tumour. Summed up: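 Tumor-bearing mice receive test compound while controls get vehicle alone. Antitumor effect is scored from survival or tumor dimensions as a T/C quotient.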

Where [1] appears, read: dose: 25.0 mg/kg/injection, schedule: Q01DX011 (ip), vehicle: methylcellulose (MC).
Setting [2] is: dose: 12.5 mg/kg/injection, schedule: Q01DX011 (ip), vehicle: carboxymethylcellulose (CMC).
Setting [3] is: dose: 100.0 mg/kg/injection, schedule: Q01DX011 (sc), vehicle: steriod suspending solution.

SMILES strings stand for the structures. Where “and” joins values, the source holds several entries; their conditions need not be identical. Equal entries are not always repeated.

Turning to `CCN(CC)C(=O)CSc1nc(N)nc2nc[nH]c12`, the T/C is 45 % of control under setting [1]; 12 % of control (dose: 50.0 mg/kg/injection, schedule: Q01DX011 (ip), vehicle: methylcellulose (MC)); 10 % of control (dose: 100.0 mg/kg/injection, schedule: Q01DX011 (ip), vehicle: methylcellulose (MC)); 3 % of control and 13 % of control (dose: 200.0 mg/kg/injection, schedule: Q01DX011 (ip), vehicle: methylcellulose (MC)); 4 % of control (dose: 400.0 mg/kg/injection, schedule: Q01DX011 (ip), vehicle: methylcellulose (MC)).
In the case of `N#[N+]c1n[nH]nc1C(N)=O`, the T/C (dose: 6.25 mg/kg/injection, schedule: Q01DX011 (ip), vehicle: carboxymethylcellulose (CMC)) is 94 % of control and the T/C under setting [2] is 63 % of control.
Consider `CC1CCN(/N=N/c2nc3c([nH]2)c(=O)n(C)c(=O)n3C)CC1`, for which the T/C is 41 % of control under setting [1] and 57 % of control (dose: 75.0 mg/kg/injection, schedule: Q01DX011 (ip), vehicle: methylcellulose (MC)).
Take `c1ccc(CSc2ncnc3nc[nH]c23)cc1`: the T/C (dose: 1.5 mg/kg/injection, schedule: Q01DX011 (ip), vehicle: alkali diluted with saline) was 2 % of control; the T/C (dose: 1.5 mg/kg/injection, schedule: Q01DX011 (oral), vehicle: alkali diluted with saline) is 22 % of control; the T/C (dose: 2.5 mg/kg/injection, schedule: Q01DX011 (ip), vehicle: saline) was 35 % of control; the T/C (dose: 3.0 mg/kg/injection, schedule: Q01DX011 (ip), vehicle: alkali diluted with saline) was 44 % of control; the T/C (dose: 3.0 mg/kg/injection, schedule: Q01DX011 (ip), vehicle: carboxymethylcellulose (CMC)) was 59 % of control; the T/C (dose: 3.0 mg/kg/injection, schedule: Q01DX011 (oral), vehicle: alkali diluted with saline) was 28 % of control. The T/C (dose: 3.1 mg/kg/injection, schedule: Q01DX011 (ip), vehicle: carboxymethylcellulose (CMC)) was 43 % of control; the T/C (dose: 5.0 mg/kg/injection, schedule: Q01DX011 (ip), vehicle: saline) was 12 % of control; the T/C (dose: 6.0 mg/kg/injection, schedule: Q01DX006 (iv), vehicle: saline) was 17 % of control; the T/C (dose: 6.0 mg/kg/injection, schedule: Q01DX011 (im), vehicle: saline) was 12 % of control; the T/C (dose: 6.0 mg/kg/injection, schedule: Q01DX011 (ip), vehicle: alkali diluted with saline) was 16 % of control; the T/C (dose: 6.0 mg/kg/injection, schedule: Q01DX011 (ip), vehicle: carboxymethylcellulose (CMC)) is 22 % of control and 32 % of control. Besides, the T/C is 2 % of control (dose: 6.0 mg/kg/injection, schedule: Q01DX011 (ip), vehicle: saline); 16 % of control (dose: 6.0 mg/kg/injection, schedule: Q01DX011 (oral), vehicle: alkali diluted with saline); 9 % of control (dose: 6.0 mg/kg/injection, schedule: Q01DX011 (sc), vehicle: steriod suspending solution); 15 % of control (dose: 6.2 mg/kg/injection, schedule: Q01DX011 (ip), vehicle: carboxymethylcellulose (CMC)); 5 % of control (dose: 10.0 mg/kg/injection, schedule: Q01DX011 (ip), vehicle: saline); 39 % of control (dose: 11.0 mg/kg/injection, schedule: Q07DX002 (ip), vehicle: alkali diluted with saline). Moreover, the T/C runs as follows: (dose: 12.0 mg/kg/injection, schedule: Q01DX006 (iv), vehicle: saline) 2 % of control; (dose: 12.0 mg/kg/injection, schedule: Q01DX011 (im), vehicle: saline) 3 % of control; (dose: 12.0 mg/kg/injection, schedule: Q01DX011 (ip), vehicle: carboxymethylcellulose (CMC)) 3 % of control; (dose: 12.0 mg/kg/injection, schedule: Q01DX011 (oral), vehicle: alkali diluted with saline) 54 % of control; (dose: 12.0 mg/kg/injection, schedule: Q01DX011 (sc), vehicle: steriod suspending solution) 5 % of control; under setting [2], 3 % of control. The T/C (dose: 13.0 mg/kg/injection, schedule: Q01DX011 (ip), vehicle: carboxymethylcellulose (CMC)) was 17 % of control; the T/C (dose: 19.0 mg/kg/injection, schedule: Q03DX004 (ip), vehicle: carboxymethylcellulose (CMC)) was 31 % of control; the T/C (dose: 22.0 mg/kg/injection, schedule: Q07DX002 (ip), vehicle: alkali diluted with saline) is 50 % of control; the T/C (dose: 25.0 mg/kg/injection, schedule: Q01DX006 (iv), vehicle: carboxymethylcellulose (CMC)) was 9 % of control; the T/C (dose: 25.0 mg/kg/injection, schedule: Q01DX006 (iv), vehicle: saline) was 3 % of control; the T/C (dose: 25.0 mg/kg/injection, schedule: Q01DX011 (im), vehicle: saline) is 1 % of control. Moreover, the T/C runs as follows: (dose: 25.0 mg/kg/injection, schedule: Q01DX011 (ip), vehicle: saline) 2 % of control; (dose: 25.0 mg/kg/injection, schedule: Q01DX011 (oral), vehicle: carboxymethylcellulose (CMC)) 10 % of control; (dose: 25.0 mg/kg/injection, schedule: Q01DX011 (sc), vehicle: carboxymethylcellulose (CMC)) 14 % of control; (dose: 25.0 mg/kg/injection, schedule: Q01DX011 (sc), vehicle: steriod suspending solution) 3 % of control; (dose: 38.0 mg/kg/injection, schedule: Q03DX004 (ip), vehicle: carboxymethylcellulose (CMC)) 2 % of control; (dose: 44.0 mg/kg/injection, schedule: Q07DX002 (ip), vehicle: alkali diluted with saline) 43 % of control. The T/C is, setting by setting: (dose: 44.0 mg/kg/injection, schedule: Q07DX002 (ip), vehicle: carboxymethylcellulose (CMC)) 5 % of control; (dose: 50.0 mg/kg/injection, schedule: Q01DX006 (iv), vehicle: carboxymethylcellulose (CMC)) 17 % of control; (dose: 50.0 mg/kg/injection, schedule: Q01DX011 (im), vehicle: carboxymethylcellulose (CMC)) 8 % of control; (dose: 50.0 mg/kg/injection, schedule: Q01DX011 (ip), vehicle: carboxymethylcellulose (CMC)) 3 % of control and 8 % of control; (dose: 50.0 mg/kg/injection, schedule: Q01DX011 (oral), vehicle: carboxymethylcellulose (CMC)) 6 % of control; (dose: 50.0 mg/kg/injection, schedule: Q01DX011 (sc), vehicle: steriod suspending solution) 1 % of control. The T/C (dose: 75.0 mg/kg/injection, schedule: Q03DX004 (ip), vehicle: carboxymethylcellulose (CMC)) was 2 % of control and 13 % of control; the T/C (dose: 88.0 mg/kg/injection, schedule: Q07DX002 (ip), vehicle: alkali diluted with saline) was 16 % of control; the T/C (dose: 88.0 mg/kg/injection, schedule: Q07DX002 (ip), vehicle: carboxymethylcellulose (CMC)) was 45 % of control; the T/C (dose: 100.0 mg/kg/injection, schedule: Q01DX011 (im), vehicle: carboxymethylcellulose (CMC)) is 1 % of control and 2 % of control; the T/C (dose: 100.0 mg/kg/injection, schedule: Q01DX011 (ip), vehicle: carboxymethylcellulose (CMC)) was 2 % of control; the T/C under setting [3] is 2 % of control. The T/C is 3 % of control and 4 % of control (dose: 175.0 mg/kg/injection, schedule: Q07DX002 (ip), vehicle: carboxymethylcellulose (CMC)); 11 % of control and 17 % of control (dose: 200.0 mg/kg/injection, schedule: Q01DX011 (im), vehicle: carboxymethylcellulose (CMC)); 1 % of control and 6 % of control (dose: 200.0 mg/kg/injection, schedule: Q01DX011 (oral), vehicle: carboxymethylcellulose (CMC)); 17 % of control (dose: 200.0 mg/kg/injection, schedule: Q01DX011 (sc), vehicle: carboxymethylcellulose (CMC)); 6 % of control (dose: 300.0 mg/kg/injection, schedule: Q03DX004 (ip), vehicle: carboxymethylcellulose (CMC)); 1 % of control and 6 % of control (dose: 350.0 mg/kg/injection, schedule: Q07DX002 (ip), vehicle: carboxymethylcellulose (CMC)). Moreover, the T/C reads like this: (dose: 600.0 mg/kg/injection, schedule: Q03DX004 (ip), vehicle: alkali diluted with saline) 3 % of control; (dose: 700.0 mg/kg/injection, schedule: Q07DX002 (ip), vehicle: carboxymethylcellulose (CMC)) 1 % of control.
Take `Cc1nc(Cl)c(C#N)c(C(F)(F)F)c1[N+](=O)[O-]`: the T/C (dose: 30.0 mg/kg/injection, schedule: Q01DX011 (ip), vehicle: carboxymethylcellulose (CMC)) was 59 % of control.
Consider `C[C@]12CCC(=O)C[C@H]1CC[C@@H]1[C@@H]2C(=O)C[C@@]2(C)[C@H]1CC[C@]2(C)O`, for which the T/C reads like this: (dose: 10.0 mg/kg/injection, schedule: Q01DX011 (sc), vehicle: steriod suspending solution) 85 % of control; under setting [3], 103 % of control; (dose: 200.0 mg/kg/injection, schedule: Q01DX011 (sc), vehicle: steriod suspending solution) 105 % of control.
For `Nc1nc(=S)c2[nH]cnc2[nH]1.[Cu+2]`, the T/C by setting is: (dose: 0.62 mg/kg/injection, schedule: Q01DX011 (ip), vehicle: carboxymethylcellulose (CMC)) 98 % of control; (dose: 1.25 mg/kg/injection, schedule: Q01DX011 (ip), vehicle: carboxymethylcellulose (CMC)) 83 % of control; (dose: 2.5 mg/kg/injection, schedule: Q01DX011 (ip), vehicle: carboxymethylcellulose (CMC)) 105 % of control; (dose: 5.0 mg/kg/injection, schedule: Q01DX011 (ip), vehicle: carboxymethylcellulose (CMC)) 59 % of control.
